{"source": "patent US6258845A", "about": "(priority 1999, dated 2001)", "origin": "cited, not measured here", "key": {"[1]": {"test_system": "AOM-treated rat model of colon carcinogenesis", "settings": "in vivo; cited from earlier work"}, "[2]": {"test_system": "colon mucosal prostaglandins", "settings": "cited from earlier work"}, "colon cancer incidence": {"test_system": "colon cancer incidence", "settings": "cited from earlier work"}, "COX (cyclooxygenase)": {"test_system": "COX (cyclooxygenase)", "settings": "cited from earlier work"}, "[3]": {"settings": "in vivo; cited from earlier work"}, "[4]": {"test_system": "tumors harboring Ki-ras mutations in AOM-treated rats", "settings": "cited from earlier work"}, "[5]": {"test_system": "carcinogenesis in rodent/animal models", "settings": "in vivo; cited from earlier work"}, "[6]": {"settings": "cited from earlier work"}}, "note": "Where “and” joins values, the source holds several entries; their conditions need not be identical. Equal entries are not always repeated. Entries after “also recorded” stand apart in the source; their conditions may differ.", "data": [{"smiles": "CC(=O)Oc1ccccc1C(=O)O", "note": "[aspirin]", "values": [{"measurement": "inhibition of colon carcinogenesis in AOM-treated rat model", "setting": "[1]", "value": "effectively inhibit colon carcinogenesis"}, {"measurement": "lowest dose decreasing PGF2α in colon mucosa", "setting": "[2]; in vivo", "value": 40, "unit": "mg"}, {"measurement": "threshold dose of effect on colon mucosa", "setting": "[2]; in vivo", "value": "81 mg and 80 mg"}, {"measurement": "effect on colon mucosal prostaglandins", "setting": "[2]; low doses, another group of investigators", "value": "no such effect on colon mucosal prostaglandins"}, {"measurement": "upper gastrointestinal mucosa prostaglandins", "setting": "[2]; low doses", "value": "substantial reduction of prostaglandins; also recorded: substantial education of prostaglandins"}, {"measurement": "beneficial effect, three large cohort studies", "setting": "colon cancer incidence; in vivo", "value": "conflicting reports on the beneficial effect"}, {"measurement": "weekly total dose with evident effect on colon cancer incidence", "setting": "colon cancer incidence; weekly total dose", "value": "≥ 1000", "unit": "mg"}, {"measurement": "COX / prostaglandin synthesis inhibition", "setting": "COX (cyclooxygenase)", "value": "inhibitor of cyclooxygenase"}]}, {"smiles": "Cc1ncc([N+](=O)[O-])n1CCO", "note": "[metronidazole]", "values": [{"measurement": "disulfiram-like reaction with alcohol ingestion", "setting": "[3]", "value": 20, "unit": "%"}, {"measurement": "rash", "setting": "[3]", "value": 5, "unit": "%"}]}, {"smiles": "COc1ccc2c(c1)c(CC(=O)O)c(C)n2C(=O)c1ccc(Cl)cc1", "note": "[indomethacin]", "values": [{"measurement": "inhibition of colon carcinogenesis in AOM-treated rat model", "setting": "[1]", "value": "effectively inhibit colon carcinogenesis"}, {"measurement": "COX / prostaglandin synthesis inhibition", "setting": "COX (cyclooxygenase)", "value": "prostaglandin synthase inhibitor"}]}, {"smiles": "CN1C(C(=O)Nc2ccccn2)=C(O)c2ccccc2S1(=O)=O", "note": "[piroxicam, 4-Hydroxy-2-methyl-N-2-pyridyl-2H1,2-benzothiazine-3-carboxamide 1,1-dioxide]", "values": [{"measurement": "Ki-ras mutation / tumors harboring an activated Ki-ras", "setting": "[4]", "value": "reduced Ki-ras mutation frequencies"}, {"measurement": "amount of biochemically active p21 ras in existing tumors", "setting": "[4]", "value": "reduced the amount of biochemically active p21 ras in existing tumors"}, {"measurement": "tumors harboring Ki-ras mutations", "setting": "[4]; reduced from 90%", "value": 25, "unit": "%"}, {"measurement": "inhibition of colon carcinogenesis in AOM-treated rat model", "setting": "[1]", "value": "effectively inhibit colon carcinogenesis"}, {"measurement": "chemoprevention / inhibition of tumor development in animal models", "setting": "[5]", "value": "the most effective chemoprevention agent in animal models"}, {"measurement": "side effects", "setting": "[6]; IIb trial / meta-analysis", "value": "has more side effects than other NSAIDs"}, {"measurement": "half-life", "setting": "[6]; human, in vivo", "value": "long half-life"}, {"measurement": "most frequently reported side effects", "setting": "[6]; human, in vivo", "value": "Gastrointestinal complaints"}]}, {"smiles": "COc1ccc2[nH]c([S+]([O-])Cc3ncc(C)c(OC)c3C)nc2c1", "note": "(stereo not drawn) [omeprazole]", "values": [{"measurement": "dizziness", "setting": "[3]", "value": 2, "unit": "%"}]}, {"smiles": "CC[C@H]1OC(=O)[C@H](C)[C@@H](O[C@H]2C[C@@](C)(OC)[C@@H](O)[C@H](C)O2)[C@H](C)[C@@H](O[C@@H]2O[C@H](C)C[C@H](N(C)C)[C@H]2O)[C@](C)(OC)C[C@@H](C)C(=O)[C@H](C)[C@@H](O)[C@]1(C)O", "note": "[clarithromycin]", "values": [{"measurement": "diarrhea", "setting": "[3]", "value": 10, "unit": "%"}, {"measurement": "pseudomembranous colitis", "setting": "[3]", "value": 1, "unit": "%"}]}, {"smiles": "Cc1c(OCC(F)(F)F)ccnc1C[S+]([O-])c1nc2ccccc2[nH]1", "note": "(stereo not drawn) [lansoprazole]", "values": [{"measurement": "diarrhea", "setting": "[3]", "value": 8, "unit": "%"}, {"measurement": "headache", "setting": "[3]", "value": 5, "unit": "%"}, {"measurement": "nausea", "setting": "[3]", "value": 3, "unit": "%"}]}, {"smiles": "CC1(C)S[C@@H]2[C@H](NC(=O)[C@H](N)c3ccc(O)cc3)C(=O)N2[C@H]1C(=O)O", "note": "[amoxicillin]", "values": [{"measurement": "adverse effects", "setting": "[3]", "value": "diarrhea and super-infections"}]}]}
